Some results are limits rather than exact numbers.

Data set [1] has as its system Human immunodeficiency virus 1. Put plainly: Antiviral activity against NNRTI resistant HIV1 harboring Leu100IIe mutant infected in human MT4 cells assessed as reduction in virus-induced cytopathic effect measured after 5 days by MTT assay. As to conditions: Human immunodeficiency virus 1, MT4, 120 h. Type of data set: functional, organism-based. (In general: Damage to the host cells serves as the signal in cytopathic effect assays.)

The subject of data set [2] is Human immunodeficiency virus 1. Nature of the data set: Antiviral activity against NNRTI resistant HIV1 harboring Lys103Asn mutant infected in human MT4 cells assessed as reduction in virus-induced cytopathic effect measured after 5 days by MTT assay. Type of data set: functional, organism-based. As to conditions: Human immunodeficiency virus 1, MT4, 120 h.
Data set [3] deals with Human immunodeficiency virus 1. Put plainly: Antiviral activity against NNRTI resistant HIV1 harboring Tyr181Cys mutant infected in human MT4 cells assessed as reduction in virus-induced cytopathic effect measured after 5 days by MTT assay. Type of data set: functional, organism-based. As to conditions: Human immunodeficiency virus 1, MT4, 120 h.
Data set [4] concerns Human immunodeficiency virus 1. Put plainly: Antiviral activity against NNRTI resistant HIV1 harboring Tyr188Leu mutant infected in human MT4 cells assessed as reduction in virus-induced cytopathic effect measured after 5 days by MTT assay. Type of data set: functional, organism-based. Particulars: Human immunodeficiency virus 1, MT4, 120 h.
Data set [5] has as its system Human immunodeficiency virus 1. Put plainly: Antiviral activity against NNRTI resistant HIV1 LAI infected in human MT4 cells assessed as reduction in virus-induced cytopathic effect measured after 5 days by MTT assay. Type of data set: functional, organism-based. As to conditions: Human immunodeficiency virus 1, LAI, MT4, 120 h.
The nature of data set [6]: Cytotoxicity against human IM-9 cells assessed as cell growth inhibition. Type of data set: toxicity, cell-based.
Data set [7] has as its system Jurkat. Nature of the data set: Cytotoxicity against human Jurkat cells assessed as cell growth inhibition. Type of data set: functional, cell-based.
Data set [8] relates to Daudi. Put plainly: Cytotoxicity against human Daudi cells assessed as cell growth inhibition. Type of data set: functional, cell-based.
Data set [9] concerns HL-60. Put plainly: Cytotoxicity against human HL-60 cells assessed as cell growth inhibition. Type of data set: functional, cell-based.
Data set [10] has as its system MCF7. Nature of the data set: Cytotoxicity against human MCF7 cells assessed as cell growth inhibition. Type of data set: functional, cell-based.
Data set [11] relates to DU-145. Put plainly: Cytotoxicity against human DU-145 cells assessed as cell growth inhibition. Type of data set: functional, cell-based.
The nature of data set [12]: Cytotoxicity against mouse LL2 cells assessed as cell growth inhibition. Type of data set: functional, cell-based. Particulars: Lewis lung carcinoma.
For data set [13], the system named is SK-OV-3. Nature of the data set: Cytotoxicity against human SK-OV-3 cells assessed as cell growth inhibition. Type of data set: functional, cell-based.
The nature of data set [14]: Cytotoxicity against human MHOC-59 cell assessed as cell growth inhibition. Type of data set: functional, cell-based.
In data set [15] the test system is AN3-CA. Put plainly: Cytotoxicity against human AN3-CA cells assessed as cell growth inhibition. Type of data set: functional, cell-based.
Data set [16] concerns HEC-1-A. Nature of the data set: Cytotoxicity against human HEC-1-A cells assessed as cell growth inhibition. Type of data set: functional, cell-based.
Data set [17] has as its system K562. Put plainly: cells. As to conditions: Homo sapiens.
Description: Cytotoxicity against human K562 cells assessed as cell growth inhibition
Data set [18] addresses 5-hydroxytryptamine receptor 7 (Homo sapiens, UniProt P34969). Put plainly: Displacement of [3H]-5Carboxyamidotryptamine from human 5-HT7R expressed in HEK293 cells by radioligand binding assay. Type of data set: cell-based.
Data set [19] has as its system MDA-MB-231. Nature of the data set: Antiproliferative activity against human MDA-MB-231 cells assessed as cell growth inhibition measured after 72 hrs by MTT assay. Type of data set: functional, cell-based. As to conditions: MDA-MB-231, 72 h.
Data set [20] deals with SK-BR-3. Nature of the data set: Antiproliferative activity against human SK-BR-3 cells assessed as cell growth inhibition measured after 72 hrs by MTT assay. Type of data set: functional, cell-based. Particulars: SK-BR-3, 72 h. (Tetrazolium dyes change colour on reduction, which living cells bring about.)
For data set [21], the system named is MCF7. Put plainly: Antiproliferative activity against human MCF7 cells assessed as cell growth inhibition measured after 72 hrs by MTT assay. Type of data set: functional, cell-based. Particulars: MCF7, 72 h.
Data set [22] deals with MCF-10A. Put plainly: Antiproliferative activity against human MCF-10A cells assessed as cell growth inhibition measured after 72 hrs by MTT assay. Type of data set: functional, cell-based.
The target of data set [23] is T1, Equilibrative nucleoside transporter 1 (Homo sapiens, UniProt Q99808).
T1 sequence (Q99808 whole entry): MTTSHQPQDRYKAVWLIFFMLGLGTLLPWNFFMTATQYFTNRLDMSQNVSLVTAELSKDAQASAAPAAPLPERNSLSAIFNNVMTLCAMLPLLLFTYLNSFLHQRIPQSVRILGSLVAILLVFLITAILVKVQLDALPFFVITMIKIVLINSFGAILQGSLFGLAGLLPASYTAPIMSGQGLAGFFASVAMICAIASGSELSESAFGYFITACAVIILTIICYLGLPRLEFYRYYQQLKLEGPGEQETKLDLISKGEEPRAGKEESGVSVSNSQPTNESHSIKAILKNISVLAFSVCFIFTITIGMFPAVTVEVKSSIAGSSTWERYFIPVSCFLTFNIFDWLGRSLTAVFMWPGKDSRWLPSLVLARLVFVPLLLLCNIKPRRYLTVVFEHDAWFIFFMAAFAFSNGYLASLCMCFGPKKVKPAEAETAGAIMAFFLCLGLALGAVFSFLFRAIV
Nature of the data set: Inhibition of human ENT1 transfected in nucleoside transporter-deficient pig PK-15 cells assessed as inhibition of [3H]-uridine uptake by liquid scintillation counter analysis. Type of data set: cell-based.

For data set [24], the target named is T2, Equilibrative nucleoside transporter 2 (Homo sapiens, UniProt Q14542).
T2 sequence (Q14542 whole entry): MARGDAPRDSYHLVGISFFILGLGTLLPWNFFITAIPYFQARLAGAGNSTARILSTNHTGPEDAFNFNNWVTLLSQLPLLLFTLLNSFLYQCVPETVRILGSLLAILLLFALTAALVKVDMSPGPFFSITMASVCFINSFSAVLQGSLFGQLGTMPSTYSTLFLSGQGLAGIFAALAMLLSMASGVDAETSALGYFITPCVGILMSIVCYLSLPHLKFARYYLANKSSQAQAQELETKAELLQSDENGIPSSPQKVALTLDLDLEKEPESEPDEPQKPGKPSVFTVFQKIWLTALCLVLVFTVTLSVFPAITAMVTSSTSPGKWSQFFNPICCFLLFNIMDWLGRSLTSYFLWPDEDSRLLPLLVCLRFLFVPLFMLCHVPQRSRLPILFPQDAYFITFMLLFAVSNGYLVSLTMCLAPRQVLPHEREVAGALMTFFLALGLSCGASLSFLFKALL
Put plainly: Inhibition of human ENT2 transfected in nucleoside transporter-deficient pig PK-15 cells assessed as inhibition of [3H]-uridine uptake by liquid scintillation counter analysis. Type of data set: cell-based.

Data set [25] relates to Human immunodeficiency virus 1. Nature of the data set: Antiviral activity against wild type HIV1 IIIB assessed as viral growth inhibition measured after 5 days by MTT assay. Type of data set: functional, organism-based. Particulars: Human immunodeficiency virus 1, IIIB, 120 h.
Data set [26] has as its system Human immunodeficiency virus 1. Nature of the data set: Antiviral activity against NNRTI resistant HIV1 harboring Val106Ala mutant infected in human MT4 cells assessed as reduction in virus-induced cytopathic effect measured after 5 days by MTT assay. Type of data set: functional, organism-based. As to conditions: Human immunodeficiency virus 1, MT4, 120 h.
The subject of data set [27] is Human immunodeficiency virus 1. Put plainly: Antiviral activity against NNRTI resistant HIV1 harboring Gly190Ala mutant infected in human MT4 cells assessed as reduction in virus-induced cytopathic effect measured after 5 days by MTT assay. Type of data set: functional, organism-based. As to conditions: Human immunodeficiency virus 1, MT4, 120 h.
Data set [28] deals with 5-hydroxytryptamine receptor 1A (Homo sapiens, UniProt P08908). Nature of the data set: Displacement of […] from human 5-HT1AR expressed in HEK293 cells by radioligand binding assay. Type of data set: cell-based. In general terms: Loss of bound radioactivity is the signal in a displacement assay; it reports binding, not function.
In data set [29] the target is 5-hydroxytryptamine receptor 2A (Homo sapiens, UniProt P28223). Nature of the data set: Displacement of […] from human 5-HT2AR expressed in HEK293 cells by radioligand binding assay. Type of data set: cell-based.
The target in data set [30] is D(2) dopamine receptor (Homo sapiens, UniProt P14416). Nature of the data set: Displacement of [3H]-Raclopride from human dopamine D2 receptor expressed in HEK293 cells by radioligand binding assay. Type of data set: cell-based.
The target of data set [31] is NADPH oxidase 1 (Homo sapiens, UniProt Q9Y5S8). Nature of the data set: Inhibition of human NOX1.
Data set [32] has as its target NADPH oxidase 2 (Homo sapiens, UniProt P04839). Nature of the data set: Inhibition of human NOX2.
The target in data set [33] is NADPH oxidase 3 (Homo sapiens, UniProt Q9HBY0). Nature of the data set: Inhibition of human NOX3.
Data set [34] has as its target NADPH oxidase 4 (Homo sapiens, UniProt Q9NPH5). Nature of the data set: Inhibition of human NOX4.
Data set [35] concerns the target NADPH oxidase 5 (Homo sapiens, UniProt Q96PH1). Nature of the data set: Inhibition of human NOX5.
For data set [36], the target named is 5-hydroxytryptamine receptor 6 (Homo sapiens, UniProt P50406). Put plainly: Displacement of [3H]-LSD from human 5-HT6R expressed in HEK293 cells assessed as binding constant by radioligand binding assay. Type of data set: cell-based.
5-hydroxytryptamine receptor 6, sequence (P50406 whole entry): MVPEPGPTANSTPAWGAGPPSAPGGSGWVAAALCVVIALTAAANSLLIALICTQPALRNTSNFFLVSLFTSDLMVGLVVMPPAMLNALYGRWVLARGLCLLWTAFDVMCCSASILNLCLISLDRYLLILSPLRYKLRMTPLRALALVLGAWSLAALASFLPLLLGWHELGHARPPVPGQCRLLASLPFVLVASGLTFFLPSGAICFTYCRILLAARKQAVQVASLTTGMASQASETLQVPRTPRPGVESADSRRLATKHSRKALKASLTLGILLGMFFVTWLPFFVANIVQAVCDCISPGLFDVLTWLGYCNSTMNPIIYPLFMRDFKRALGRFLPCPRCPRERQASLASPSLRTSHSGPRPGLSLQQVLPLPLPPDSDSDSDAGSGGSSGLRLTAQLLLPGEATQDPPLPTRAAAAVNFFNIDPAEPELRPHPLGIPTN

5-hydroxytryptamine receptor 7, sequence (P34969 whole entry): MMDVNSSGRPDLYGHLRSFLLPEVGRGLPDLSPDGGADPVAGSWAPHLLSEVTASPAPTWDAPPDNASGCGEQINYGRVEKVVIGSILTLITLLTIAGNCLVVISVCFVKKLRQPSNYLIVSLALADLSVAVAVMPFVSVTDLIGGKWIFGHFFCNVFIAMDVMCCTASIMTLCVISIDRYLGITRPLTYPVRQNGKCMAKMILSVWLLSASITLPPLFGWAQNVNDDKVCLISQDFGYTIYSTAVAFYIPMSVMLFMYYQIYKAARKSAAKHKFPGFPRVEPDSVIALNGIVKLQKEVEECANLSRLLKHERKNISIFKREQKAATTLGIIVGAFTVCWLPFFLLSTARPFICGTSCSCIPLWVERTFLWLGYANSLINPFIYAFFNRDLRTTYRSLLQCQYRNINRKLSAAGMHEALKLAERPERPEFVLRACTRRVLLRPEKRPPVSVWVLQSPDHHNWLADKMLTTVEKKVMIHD
5-hydroxytryptamine receptor 1A, sequence (P08908 whole entry): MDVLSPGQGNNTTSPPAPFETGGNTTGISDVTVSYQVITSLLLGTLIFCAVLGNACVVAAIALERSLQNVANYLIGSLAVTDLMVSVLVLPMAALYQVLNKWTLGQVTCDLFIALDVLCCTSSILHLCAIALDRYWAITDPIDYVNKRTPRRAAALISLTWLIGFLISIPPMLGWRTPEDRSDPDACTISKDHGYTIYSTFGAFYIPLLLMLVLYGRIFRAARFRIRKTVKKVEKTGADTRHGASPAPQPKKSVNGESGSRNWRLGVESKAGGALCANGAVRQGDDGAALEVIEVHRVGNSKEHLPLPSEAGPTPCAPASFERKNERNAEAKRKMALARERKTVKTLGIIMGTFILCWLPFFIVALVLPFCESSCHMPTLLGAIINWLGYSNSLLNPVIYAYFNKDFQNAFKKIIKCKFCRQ
D(2) dopamine receptor, sequence (P14416 whole entry): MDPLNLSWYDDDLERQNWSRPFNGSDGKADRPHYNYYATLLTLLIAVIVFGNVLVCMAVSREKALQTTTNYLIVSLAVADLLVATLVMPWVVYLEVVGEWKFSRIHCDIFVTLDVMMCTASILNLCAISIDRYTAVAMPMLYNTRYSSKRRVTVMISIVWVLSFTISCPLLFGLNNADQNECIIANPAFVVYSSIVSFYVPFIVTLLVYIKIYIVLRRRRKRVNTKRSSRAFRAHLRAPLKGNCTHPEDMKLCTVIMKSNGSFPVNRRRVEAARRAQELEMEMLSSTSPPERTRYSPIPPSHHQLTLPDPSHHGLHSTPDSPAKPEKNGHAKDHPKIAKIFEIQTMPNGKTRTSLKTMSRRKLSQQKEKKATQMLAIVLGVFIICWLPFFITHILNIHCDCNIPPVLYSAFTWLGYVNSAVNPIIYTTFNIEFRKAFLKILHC
NADPH oxidase 3, sequence (Q9HBY0 whole entry): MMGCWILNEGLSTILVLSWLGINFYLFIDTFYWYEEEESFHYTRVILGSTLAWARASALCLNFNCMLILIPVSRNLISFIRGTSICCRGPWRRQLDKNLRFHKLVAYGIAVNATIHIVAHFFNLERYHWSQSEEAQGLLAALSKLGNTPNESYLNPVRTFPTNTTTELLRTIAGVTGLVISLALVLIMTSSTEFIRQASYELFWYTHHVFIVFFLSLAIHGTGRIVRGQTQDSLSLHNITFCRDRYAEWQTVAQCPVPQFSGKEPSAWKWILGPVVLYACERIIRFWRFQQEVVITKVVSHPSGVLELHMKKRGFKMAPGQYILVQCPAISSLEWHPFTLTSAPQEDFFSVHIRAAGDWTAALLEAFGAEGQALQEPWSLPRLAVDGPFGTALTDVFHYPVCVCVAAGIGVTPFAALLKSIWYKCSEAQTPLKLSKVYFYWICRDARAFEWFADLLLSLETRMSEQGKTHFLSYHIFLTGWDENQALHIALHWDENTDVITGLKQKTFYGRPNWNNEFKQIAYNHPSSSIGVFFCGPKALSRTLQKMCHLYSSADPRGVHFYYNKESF
NADPH oxidase 4, sequence (Q9NPH5 whole entry): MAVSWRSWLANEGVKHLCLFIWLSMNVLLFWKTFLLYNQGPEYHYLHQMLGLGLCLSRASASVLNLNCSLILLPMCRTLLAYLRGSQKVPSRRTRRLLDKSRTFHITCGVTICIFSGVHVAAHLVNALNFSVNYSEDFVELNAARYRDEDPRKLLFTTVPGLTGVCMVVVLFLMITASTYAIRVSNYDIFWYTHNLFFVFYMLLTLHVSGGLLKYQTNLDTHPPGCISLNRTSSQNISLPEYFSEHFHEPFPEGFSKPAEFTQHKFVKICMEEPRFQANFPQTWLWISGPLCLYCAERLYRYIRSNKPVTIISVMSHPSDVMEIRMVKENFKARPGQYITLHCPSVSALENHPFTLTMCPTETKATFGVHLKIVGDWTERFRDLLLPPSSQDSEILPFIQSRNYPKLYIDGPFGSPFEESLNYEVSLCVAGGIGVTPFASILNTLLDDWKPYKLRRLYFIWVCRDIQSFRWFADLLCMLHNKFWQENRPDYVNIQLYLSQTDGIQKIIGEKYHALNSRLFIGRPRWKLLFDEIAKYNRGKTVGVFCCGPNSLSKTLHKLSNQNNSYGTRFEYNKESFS
NADPH oxidase 2, sequence (P04839 whole entry): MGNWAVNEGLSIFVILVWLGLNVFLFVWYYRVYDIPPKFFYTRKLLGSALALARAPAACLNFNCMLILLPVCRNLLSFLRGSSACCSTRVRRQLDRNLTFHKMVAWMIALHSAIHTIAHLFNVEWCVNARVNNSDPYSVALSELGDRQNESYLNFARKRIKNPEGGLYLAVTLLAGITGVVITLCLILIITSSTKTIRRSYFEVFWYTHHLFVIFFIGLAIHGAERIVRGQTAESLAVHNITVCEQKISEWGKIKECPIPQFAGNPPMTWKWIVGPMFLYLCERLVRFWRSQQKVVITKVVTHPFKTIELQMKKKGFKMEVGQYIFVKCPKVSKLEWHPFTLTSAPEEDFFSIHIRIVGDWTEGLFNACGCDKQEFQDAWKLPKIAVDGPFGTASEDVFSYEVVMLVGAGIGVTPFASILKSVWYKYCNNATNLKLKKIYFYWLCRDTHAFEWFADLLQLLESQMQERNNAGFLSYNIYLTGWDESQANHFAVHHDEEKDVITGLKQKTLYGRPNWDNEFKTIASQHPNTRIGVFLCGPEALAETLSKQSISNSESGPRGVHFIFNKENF
5-hydroxytryptamine receptor 2A, sequence (P28223 whole entry): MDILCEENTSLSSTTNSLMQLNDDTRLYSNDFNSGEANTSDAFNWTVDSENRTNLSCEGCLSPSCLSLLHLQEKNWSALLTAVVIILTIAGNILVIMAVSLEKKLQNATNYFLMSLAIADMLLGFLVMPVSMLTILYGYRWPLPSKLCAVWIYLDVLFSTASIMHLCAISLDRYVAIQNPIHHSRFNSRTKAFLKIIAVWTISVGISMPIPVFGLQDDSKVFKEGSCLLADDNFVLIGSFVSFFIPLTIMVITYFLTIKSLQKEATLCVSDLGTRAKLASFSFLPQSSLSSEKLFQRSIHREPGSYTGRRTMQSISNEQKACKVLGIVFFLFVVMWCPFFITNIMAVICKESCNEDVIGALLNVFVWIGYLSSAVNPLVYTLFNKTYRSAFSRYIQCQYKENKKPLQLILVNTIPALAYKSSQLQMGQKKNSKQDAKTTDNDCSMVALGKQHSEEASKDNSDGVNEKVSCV
NADPH oxidase 5, sequence (Q96PH1 whole entry): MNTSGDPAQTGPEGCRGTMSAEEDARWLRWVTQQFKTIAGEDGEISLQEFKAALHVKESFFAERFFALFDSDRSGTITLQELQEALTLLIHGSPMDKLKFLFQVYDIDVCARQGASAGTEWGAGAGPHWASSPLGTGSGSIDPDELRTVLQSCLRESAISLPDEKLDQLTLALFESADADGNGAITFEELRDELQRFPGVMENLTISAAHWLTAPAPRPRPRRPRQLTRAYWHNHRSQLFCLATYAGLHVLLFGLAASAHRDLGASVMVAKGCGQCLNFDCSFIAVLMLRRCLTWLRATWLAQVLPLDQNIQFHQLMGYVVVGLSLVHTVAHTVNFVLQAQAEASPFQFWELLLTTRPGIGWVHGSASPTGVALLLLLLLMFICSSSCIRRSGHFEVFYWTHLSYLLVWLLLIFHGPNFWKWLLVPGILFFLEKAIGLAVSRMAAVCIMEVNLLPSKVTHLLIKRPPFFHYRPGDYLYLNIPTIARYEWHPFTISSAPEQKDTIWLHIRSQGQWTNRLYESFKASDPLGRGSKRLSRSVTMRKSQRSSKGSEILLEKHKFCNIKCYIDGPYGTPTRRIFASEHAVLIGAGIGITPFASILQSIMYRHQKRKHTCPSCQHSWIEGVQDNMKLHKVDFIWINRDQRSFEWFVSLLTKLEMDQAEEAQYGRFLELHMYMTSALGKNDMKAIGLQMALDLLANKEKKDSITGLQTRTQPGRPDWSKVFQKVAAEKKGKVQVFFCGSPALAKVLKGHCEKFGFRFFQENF

Take `Cc1cc(C)c(Cc2nc(N)nc(Nc3ccc(C#N)cc3)n2)c(C)c1`: the 50% inhibitory concentration (IC50) worked out at 82 nM in [1]; 3 nM in data set [2]; 15 nM in data set [3]; 45 nM in data set [4]; 0.8 nM in data set [5].

Consider `CCOc1ccc(Cl)cc1-c1nc(N)nc(Nc2ccc(CO)cc2)n1`, for which the IC50 in data set [6] is under 12.5 nM; in [7] it was under 12.5 nM; in [8] it was 13 nM; in data set [9], under 12.5 nM; in [10], 40 nM; in [11], 25 nM. For the same compound, the IC50 is 25 nM in data set [12]; 29 nM in data set [13]; 25 nM in data set [14]; 32 nM in [15]; 41 nM in [16]; under 12.5 nM in data set [17].

Compound `CCC(Oc1cc(Cl)ccc1Cl)c1nc(N)nc(N2CCN(C)CC2)n1` (stereo unspecified) had an inhibitory constant (Ki) in data set [18] of 5710 nM.

As for `COc1cc(-c2nc(N)nc(Nc3ccc(C)cc3)n2)cc(OC)c1OC`, the IC50 is 1 nM in data set [19], 210 nM in data set [20], over 20000 nM in data set [21] and over 20000 nM in [22].

As for `Cc1cccc(Nc2nc(N)nc(CN3CCN(c4ccc(F)cc4)CC3)n2)c1`, the IC50 came to 2380 nM in data set [23] and 570 nM in [24].

For `N#Cc1ccc(Nc2nc(N)nc(Cc3c(Cl)cccc3Cl)n2)cc1`, the 50% inhibitory concentration (IC50) in data set [25] was 2 nM; in data set [1], 293 nM; in [2], 40 nM; in data set [26] it was 26 nM; in [3], 200 nM; in data set [27], 1 nM. Also, in data set [5], the half-maximal inhibitory concentration (IC50) came out at 6.3 nM.

For `CN1CCN(c2nc(N)nc(C(C)(C)Sc3ccc4ccccc4c3)n2)CC1`, the Ki in [28] worked out at 2290 nM; in data set [29], 39 nM; in data set [18], 610 nM; in data set [30], 300 nM.

On to `Cc1ccc(N2CCN(c3nc(N)nc(Nc4ccc(C)c(C)c4)n3)CC2)cc1`, for which the half-inhibitory concentration (IC50) was 7000 nM in data set [31]; 16000 nM in data set [32]; 3200 nM in data set [33]; 680 nM in data set [34]; 570 nM in data set [35].

In the case of `CCOc1ccc(Cl)cc1-c1nc(N)nc(Nc2ccc(Cl)cc2)n1`, the half-inhibitory concentration (IC50) amounted to 20 nM in data set [6]; 30 nM in data set [7]; 10 nM in [8]; 30 nM in data set [9]; 50 nM in data set [10]; 30 nM in data set [11]. The 50% inhibitory concentration (IC50) in data set [12] was 20 nM; in [13] it was 32 nM; in data set [14] it was 80 nM; in [15], 33 nM; in data set [16], 54 nM; in data set [17], 30 nM.

With `CN1CCN(c2nc(N)nc(Cc3c[nH]c4ccccc34)n2)CC1`, the Ki amounted to 9450 nM in [28], 16800 nM in data set [18] and 1950 nM in data set [30]. Also, the Kb in [36] is 18 nM.

The IC50 is the concentration needed to halve the response being measured. As usually defined, the Ki is a measure of affinity in units of concentration, obtained from inhibition or displacement.
